Assays:
Assay type in all cases: biochemical
FGFR1 = FGFR1 (Homo sapiens (Human), UniProt P11362); experiment: FGFR enzymatic assay (FRET peptide phosphorylation), FGFR1; details: FGFR1 enzyme 0.02 nM, ATP 210 μM
How it was run: (§1)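 IC50 values were obtained from variable-slope sigmoidal dose-response fitting of a FRET read-out of peptide phosphorylation. The buffer, described for FGFR3, was 50 mM HEPES pH 7.5 with MgCl2, EGTA, Tween-20 and DTT.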

FGFR2 = FGFR2 (Homo sapiens (Human), UniProt P21802); experiment: FGFR enzymatic assay (FRET peptide phosphorylation), FGFR2; details: FGFR2 enzyme 0.01 nM, ATP 100 μM
Sequence of FGFR2 (P21802 22-821): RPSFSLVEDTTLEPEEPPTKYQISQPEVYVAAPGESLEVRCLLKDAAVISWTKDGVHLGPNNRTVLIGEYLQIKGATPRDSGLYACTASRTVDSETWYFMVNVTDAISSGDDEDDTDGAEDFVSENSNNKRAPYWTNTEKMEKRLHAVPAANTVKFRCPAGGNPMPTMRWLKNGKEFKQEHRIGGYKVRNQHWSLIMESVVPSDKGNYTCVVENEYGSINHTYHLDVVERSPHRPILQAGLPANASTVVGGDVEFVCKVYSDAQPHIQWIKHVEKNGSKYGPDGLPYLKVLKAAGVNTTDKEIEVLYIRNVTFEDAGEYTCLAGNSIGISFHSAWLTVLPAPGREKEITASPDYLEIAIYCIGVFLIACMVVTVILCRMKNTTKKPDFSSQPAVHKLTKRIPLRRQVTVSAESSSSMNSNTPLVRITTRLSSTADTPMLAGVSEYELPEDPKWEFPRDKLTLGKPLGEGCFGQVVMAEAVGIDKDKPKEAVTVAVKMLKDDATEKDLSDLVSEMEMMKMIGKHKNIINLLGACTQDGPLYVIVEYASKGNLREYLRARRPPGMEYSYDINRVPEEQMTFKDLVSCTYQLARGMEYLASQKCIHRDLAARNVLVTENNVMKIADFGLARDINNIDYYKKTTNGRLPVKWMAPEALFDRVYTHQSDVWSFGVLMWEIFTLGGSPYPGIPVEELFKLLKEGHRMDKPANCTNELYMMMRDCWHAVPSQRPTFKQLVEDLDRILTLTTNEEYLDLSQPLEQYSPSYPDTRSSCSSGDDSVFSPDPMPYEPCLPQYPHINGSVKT
How it was run: as §1

FGFR3 = FGFR3 (Homo sapiens (Human), UniProt P22607); experiment: FGFR enzymatic assay (FRET peptide phosphorylation), FGFR3; details: FGFR3 enzyme (Millipore), ATP 140 μM
Sequence of FGFR3 (P22607 23-806): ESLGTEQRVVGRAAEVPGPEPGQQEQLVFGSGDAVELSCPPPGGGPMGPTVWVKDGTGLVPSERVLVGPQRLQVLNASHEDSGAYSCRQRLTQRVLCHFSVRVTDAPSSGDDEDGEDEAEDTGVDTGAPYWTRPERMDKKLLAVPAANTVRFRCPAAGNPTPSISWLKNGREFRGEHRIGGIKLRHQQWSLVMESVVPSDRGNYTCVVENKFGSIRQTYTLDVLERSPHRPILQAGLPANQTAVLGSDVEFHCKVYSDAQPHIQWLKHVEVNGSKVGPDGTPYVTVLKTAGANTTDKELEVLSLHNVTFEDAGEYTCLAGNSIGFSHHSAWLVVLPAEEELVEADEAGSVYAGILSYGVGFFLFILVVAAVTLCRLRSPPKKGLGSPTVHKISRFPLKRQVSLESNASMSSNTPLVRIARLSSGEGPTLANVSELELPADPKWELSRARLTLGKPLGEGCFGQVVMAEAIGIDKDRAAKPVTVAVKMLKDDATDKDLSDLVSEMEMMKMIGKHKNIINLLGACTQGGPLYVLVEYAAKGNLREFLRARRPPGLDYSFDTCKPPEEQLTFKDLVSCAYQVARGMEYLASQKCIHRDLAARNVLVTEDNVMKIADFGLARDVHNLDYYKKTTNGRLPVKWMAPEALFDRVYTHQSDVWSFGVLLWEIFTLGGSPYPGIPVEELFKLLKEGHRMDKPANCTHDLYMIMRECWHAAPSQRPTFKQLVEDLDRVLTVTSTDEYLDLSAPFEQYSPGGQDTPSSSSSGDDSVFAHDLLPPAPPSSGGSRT
How it was run: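 After 5-10 min pre-incubation of FGFR3 with serially diluted compound in pH 7.5 HEPES/MgCl2/EGTA/DTT buffer, the reaction proceeded 1 hr at 25° C. Phosphorylated peptide was detected by FRET, and IC50 was fitted with a variable-slope sigmoid.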

Measured: IC50

Sequence of FGFR1 (P11362 22-822): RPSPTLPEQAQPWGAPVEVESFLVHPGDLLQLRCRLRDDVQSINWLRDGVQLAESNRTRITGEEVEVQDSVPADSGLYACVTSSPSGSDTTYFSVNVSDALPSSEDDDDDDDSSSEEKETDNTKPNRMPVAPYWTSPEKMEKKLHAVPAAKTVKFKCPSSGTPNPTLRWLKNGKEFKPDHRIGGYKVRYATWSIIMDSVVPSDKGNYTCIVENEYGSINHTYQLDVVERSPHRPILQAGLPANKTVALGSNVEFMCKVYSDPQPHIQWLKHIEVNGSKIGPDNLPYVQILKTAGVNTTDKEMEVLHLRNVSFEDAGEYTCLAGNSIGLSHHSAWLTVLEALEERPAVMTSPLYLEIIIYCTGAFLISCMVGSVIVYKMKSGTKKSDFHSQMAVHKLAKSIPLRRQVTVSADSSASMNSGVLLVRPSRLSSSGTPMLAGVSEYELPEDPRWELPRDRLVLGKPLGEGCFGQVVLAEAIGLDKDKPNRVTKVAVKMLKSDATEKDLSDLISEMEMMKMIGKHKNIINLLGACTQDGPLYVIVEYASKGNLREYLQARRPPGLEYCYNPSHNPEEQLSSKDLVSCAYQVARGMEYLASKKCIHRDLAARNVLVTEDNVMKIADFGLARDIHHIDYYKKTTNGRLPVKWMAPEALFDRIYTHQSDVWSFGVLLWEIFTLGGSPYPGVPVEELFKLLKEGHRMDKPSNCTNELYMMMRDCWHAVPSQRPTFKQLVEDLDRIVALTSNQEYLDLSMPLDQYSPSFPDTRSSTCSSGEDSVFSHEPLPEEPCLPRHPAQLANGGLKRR

COc1cc(OC)c(F)c(N2Cc3cnc4[nH]c(CN5CCN(CCO)CC5)cc4c3N(C)C2=O)c1F [Example 130, 3-(2,6-difluoro-3,5-dimethoxyphenyl)-8-{[4-(2-hydroxyethyl)piperazin-1-yl]methyl}-1-methyl-1,3,4,7-tetrahydro-2H-pyrrolo[3′,2′:5,6]pyrido[4,3-d]pyrimidin-2-one]
< 100 nM: all assays above

COc1cc(OC)c(F)c(N2Cc3cnc4[nH]c(CN5CCN(CCC#N)CC5)cc4c3N(C)C2=O)c1F [Example 131, 3-(4-{[3-(2,6-difluoro-3,5-dimethoxyphenyl)-1-methyl-2-oxo-2,3,4,7-tetrahydro-1H-pyrrolo[3′,2′:5,6]pyrido[4,3-d]pyrimidin-8-yl]methyl}piperazin-1-yl)propanenitrile]
< 100 nM: all assays above

COc1cc(OC)c(F)c(N2Cc3cnc4[nH]c(CN5CCC(C#N)CC5)cc4c3N(C)C2=O)c1F [Example 132, 1-{[3-(2,6-difluoro-3,5-dimethoxyphenyl)-1-methyl-2-oxo-2,3,4,7-tetrahydro-1H-pyrrolo[3′,2′:5,6]pyrido[4,3-d]pyrimidin-8-yl]methyl}piperidine-4-carbonitrile]
< 100 nM: all assays above

COc1cc(OC)c(F)c(N2Cc3cnc4[nH]c(CN5CC[C@H](C#N)C5)cc4c3N(C)C2=O)c1F [Example 133, (3S)-1-{[3-(2,6-difluoro-3,5-dimethoxyphenyl)-1-methyl-2-oxo-2,3,4,7-tetrahydro-1H-pyrrolo[3′,2′:5,6]pyrido[4,3-d]pyrimidin-8-yl]methyl}pyrrolidine-3-carbonitrile]
< 100 nM: all assays above

COc1cc(OC)c(F)c(N2Cc3cnc4[nH]c(CNC5CCN(C)CC5)cc4c3N(C)C2=O)c1F [Example 134, 3-(2,6-difluoro-3,5-dimethoxyphenyl)-1-methyl-8-{[(1-methylpiperidin-4-yl)amino]methyl}-1,3,4,7-tetrahydro-2Hpyrrolo[3′,2′:5,6]pyrido[4,3-d]pyrimidin-2-one]
< 100 nM: all assays above

COc1cc(OC)c(F)c(N2Cc3cnc4[nH]c(CN[C@H]5CCOC5)cc4c3N(C)C2=O)c1F [Example 135, 3-(2,6-difluoro-3,5-dimethoxyphenyl)-1-methyl-8-{[(3S)-tetrahydrofuran-3-ylamino]methyl}-1,3,4,7-tetrahydro-2Hpyrrolo[3′,2′:5,6]pyrido[4,3-d]pyrimidin-2-one]
< 100 nM: all assays above

COc1cc(OC)c(F)c(N2Cc3cnc4[nH]c(CN[C@@H]5CCOC5)cc4c3N(C)C2=O)c1F [Example 136, 3-(2,6-difluoro-3,5-dimethoxyphenyl)-1-methyl-8-{[(3R)-tetrahydrofuran-3-ylamino]methyl}-1,3,4,7-tetrahydro-2Hpyrrolo[3′,2′:5,6]pyrido[4,3-d]pyrimidin-2-one]
< 100 nM: all assays above

COc1cc(OC)c(F)c(N2Cc3cnc4[nH]c(Cn5ccnc5)cc4c3N(C)C2=O)c1F [Example 137, 3-(2,6-difluoro-3,5-dimethoxyphenyl)-8-(1H-imidazol-1-ylmethyl)-1-methyl-1,3,4,7-tetrahydro-2H-pyrrolo[3′,2′:5,6]pyrido[4,3-d]pyrimidin-2-one]
< 100 nM: all assays above

COc1cc(OC)c(F)c(N2Cc3cnc4[nH]c(Cn5cccn5)cc4c3N(C)C2=O)c1F [Example 138, 3-(2,6-difluoro-3,5-dimethoxyphenyl)-1-methyl-8-(1H-pyrazol-1-ylmethyl)-1,3,4,7-tetrahydro-2H-pyrrolo[3′,2′:5,6]pyrido[4,3-d]pyrimidin-2-one]
< 100 nM: all assays above

COc1cc(OC)c(F)c(N2Cc3cnc4[nH]c(Cc5cnn(C)c5)cc4c3N(C)C2=O)c1F [Example 139, 3-(2,6-difluoro-3,5-dimethoxyphenyl)-1-methyl-8-[(1-methyl-1H-pyrazol-4-yl)methyl]-1,3,4,7-tetrahydro-2H-pyrrolo[3′,2′:5,6]pyrido[4,3-d]pyrimidin-2-one]
< 100 nM: all assays above

COc1cc(OC)c(F)c(N2Cc3cnc4[nH]c(CCc5ccccn5)cc4c3N(C)C2=O)c1F [Example 140, 3-(2,6-difluoro-3,5-dimethoxyphenyl)-1-methyl-8-(2-pyridin-2-ylethyl)-1,3,4,7-tetrahydro-2H-pyrrolo[3′,2′:5,6]pyrido[4,3-d]pyrimidin-2-one]
< 100 nM: all assays above

CCN1C(=O)N(c2c(F)c(OC)cc(OC)c2Cl)Cc2cnc3[nH]c(CN4CCOCC4)cc3c21 [Example 141, 3-(2-chloro-6-fluoro-3,5-dimethoxyphenyl)-1-ethyl-8-(morpholin-4-ylmethyl)-1,3,4,7-tetrahydro-2H-pyrrolo[3′,2′:5,6]pyrido[4,3-d]pyrimidin-2-one]
< 100 nM: all assays above

COc1cc(OC)c(F)c(N2Cc3cnc4[nH]c(CCN5CC(F)C5)cc4c3N(C)C2=O)c1F [Example 143, 3-(2,6-difluoro-3,5-dimethoxyphenyl)-8-[2-(3-fluoroazetidin-1-yl)ethyl]-1-methyl-1,3,4,7-tetrahydro-2Hpyrrolo[3′,2′:5,6]pyrido[4,3-d]pyrimidin-2-one]
< 100 nM: all assays above

COc1cc(OC)c(F)c(N2Cc3cnc4[nH]c(CCN5CC(OC)C5)cc4c3N(C)C2=O)c1F [Example 144, 3-(2,6-difluoro-3,5-dimethoxyphenyl)-8-[2-(3-methoxyazetidin-1-yl)ethyl]-1-methyl-1,3,4,7-tetrahydro-2Hpyrrolo[3′,2′:5,6]pyrido[4,3-d]pyrimidin-2-one]
< 100 nM: all assays above

COc1cc(OC)c(Cl)c(N2Cc3cnc4[nH]ncc4c3N(c3cnn(C)c3)C2=O)c1F [Example 145, 3-(2-chloro-6-fluoro-3,5-dimethoxyphenyl)-1-(1-methyl-1H-pyrazol-4-yl)-1,3,4,7-tetrahydro-2H-pyrazolo[4′,3′:5,6]pyrido[4,3-d]pyrimidin-2-one]
< 100 nM: all assays above

COc1cc(OC)c(F)c(N2Cc3cnc4[nH]c(CCN5CCOCC5)cc4c3N(CCO)C2=O)c1F [Example 146, 3-(2,6-difluoro-3,5-dimethoxyphenyl)-1-(2-hydroxyethyl)-8-(2-morpholin-4-ylethyl)-1,3,4,7-tetrahydro-2H-pyrrolo[3′,2′:5,6]pyrido[4,3-d]pyrimidin-2-one]
< 100 nM: all assays above
